According to the NIST ThermoML archive (doi:10.1016/j.jct.2018.07.013):
Numbers after ± are expanded uncertainties.

Assays:
[1] = 298.15 K, 100 kPa, Liquid
[2] = xn = mol fraction of the nth substance listed; conditions: 298.15 K, 100 kPa, Liquid; for speed of sound: Frequency=3 MHz, Single path-length method; for mass density: Vibrating tube method
[3] = excess molar enthalpy (molar enthalpy of mixing); xn = mol fraction of the nth substance listed; conditions: 298.15 K, 100 kPa, Liquid, Power-compensation calorimetry

**Q.** With CCOC(=O)C(C)O (racemic) [DL-ethyl lactate] as the molecule, how does the speed of sound ([1]; Frequency=3 MHz, Single path-length method) read?
**A.** Its speed of sound is 1279.3 ± 0.59 m/s.

**Q.** And the mass density ([1]; Vibrating tube method)?
**A.** The mass density was 1028.45 ± 0.12 kg/m3.

**Q.** With CCOC(=O)C(C)O (stereo not drawn) [DL-ethyl lactate] + CCCCO as the molecule, how does the speed of sound ([2]; x1 = 0.0502) read?
**A.** Its speed of sound is 1241.3 ± 0.52 m/s.

**Q.** What about the speed of sound ([2]; x1 = 0.0914) of the same molecule?
**A.** The speed of sound was 1242.1 ± 0.52 m/s.

**Q.** And the speed of sound ([2]; x1 = 0.1929)?
**A.** Its speed of sound is 1244.7 ± 0.53 m/s.

**Q.** What about the speed of sound ([2]; x1 = 0.3041) of the same molecule?
**A.** Its speed of sound is 1248.3 ± 0.54 m/s.

**Q.** What about the speed of sound ([2]; x1 = 0.4061) of the same molecule?
**A.** The speed of sound was 1252.3 ± 0.54 m/s.

**Q.** And the speed of sound ([2]; x1 = 0.4991)?
**A.** Its speed of sound is 1256 ± 0.55 m/s.

**Q.** What about the speed of sound ([2]; x1 = 0.6037) of the same molecule?
**A.** Its speed of sound is 1260.8 ± 0.56 m/s.

**Q.** And the speed of sound ([2]; x1 = 0.707)?
**A.** Its speed of sound is 1265.9 ± 0.56 m/s.

**Q.** And the speed of sound ([2]; x1 = 0.7968)?
**A.** Its speed of sound is 1270.1 ± 0.57 m/s.

**Q.** What about the speed of sound ([2]; x1 = 0.8927) of the same molecule?
**A.** The speed of sound was 1274.6 ± 0.58 m/s.

**Q.** What about the speed of sound ([2]; x1 = 0.9527) of the same molecule?
**A.** The speed of sound was 1277.3 ± 0.59 m/s.

**Q.** And the speed of sound ([2]; x1 = 1)?
**A.** The speed of sound was 1279.3 ± 0.59 m/s.

**Q.** What about the mass density ([2]; x1 = 0.0502) of the same molecule?
**A.** The mass density was 819.65 ± 0.15 kg/m3.

**Q.** And the mass density ([2]; x1 = 0.0914)?
**A.** Its mass density is 830.65 ± 0.15 kg/m3.

**Q.** What about the mass density ([2]; x1 = 0.1929) of the same molecule?
**A.** The mass density was 856.89 ± 0.14 kg/m3.

**Q.** What about the mass density ([2]; x1 = 0.3041) of the same molecule?
**A.** Its mass density is 884.31 ± 0.13 kg/m3.

**Q.** And the mass density ([2]; x1 = 0.4061)?
**A.** Its mass density is 908.31 ± 0.13 kg/m3.

**Q.** What about the mass density ([2]; x1 = 0.4991) of the same molecule?
**A.** Its mass density is 929.27 ± 0.13 kg/m3.

**Q.** And the mass density ([2]; x1 = 0.6037)?
**A.** Its mass density is 951.84 ± 0.12 kg/m3.

**Q.** What about the mass density ([2]; x1 = 0.707) of the same molecule?
**A.** The mass density was 973.11 ± 0.12 kg/m3.

**Q.** And the mass density ([2]; x1 = 0.7968)?
**A.** The mass density was 990.82 ± 0.12 kg/m3.

**Q.** And the mass density ([2]; x1 = 0.8927)?
**A.** Its mass density is 1008.98 ± 0.12 kg/m3.

**Q.** And the mass density ([2]; x1 = 0.9527)?
**A.** Its mass density is 1019.97 ± 0.12 kg/m3.

**Q.** What about the mass density ([2]; x1 = 1) of the same molecule?
**A.** Its mass density is 1028.45 ± 0.12 kg/m3.

**Q.** What about the excess molar enthalpy ([3]; x1 = 0.048) of the same molecule?
**A.** Its excess molar enthalpy is 0.0471 ± 0.00143 kcal/mol.

**Q.** What about the excess molar enthalpy ([3]; x1 = 0.103) of the same molecule?
**A.** The excess molar enthalpy was 0.0841 ± 0.00143 kcal/mol.

**Q.** What about the excess molar enthalpy ([3]; x1 = 0.233) of the same molecule?
**A.** Its excess molar enthalpy is 0.136 ± 0.00191 kcal/mol.

**Q.** What about the excess molar enthalpy ([3]; x1 = 0.314) of the same molecule?
**A.** Its excess molar enthalpy is 0.149 ± 0.00191 kcal/mol.

**Q.** And the excess molar enthalpy ([3]; x1 = 0.414)?
**A.** Its excess molar enthalpy is 0.154 ± 0.00191 kcal/mol.

**Q.** And the excess molar enthalpy ([3]; x1 = 0.527)?
**A.** Its excess molar enthalpy is 0.146 ± 0.00191 kcal/mol.

**Q.** And the excess molar enthalpy ([3]; x1 = 0.626)?
**A.** The excess molar enthalpy was 0.127 ± 0.00167 kcal/mol.

**Q.** And the excess molar enthalpy ([3]; x1 = 0.714)?
**A.** The excess molar enthalpy was 0.0992 ± 0.00143 kcal/mol.

**Q.** What about the excess molar enthalpy ([3]; x1 = 0.82) of the same molecule?
**A.** The excess molar enthalpy was 0.0588 ± 0.0012 kcal/mol.

**Q.** And the excess molar enthalpy ([3]; x1 = 0.91)?
**A.** Its excess molar enthalpy is 0.0299 ± 0.000956 kcal/mol.

**Q.** What about the excess molar enthalpy ([3]; x1 = 0.951) of the same molecule?
**A.** Its excess molar enthalpy is 0.0129 ± 0.000884 kcal/mol.

**Q.** For CCOC(=O)C(C)O (stereo not drawn) [DL-ethyl lactate] + CCCO, which speed of sound ([2]; x1 = 0.0489) is on record?
**A.** Its speed of sound is 1211.1 ± 0.55 m/s.

**Q.** What about the speed of sound ([2]; x1 = 0.1025) of the same molecule?
**A.** Its speed of sound is 1216.4 ± 0.55 m/s.

**Q.** What about the speed of sound ([2]; x1 = 0.2027) of the same molecule?
**A.** The speed of sound was 1225.8 ± 0.56 m/s.

**Q.** And the speed of sound ([2]; x1 = 0.3036)?
**A.** The speed of sound was 1235.2 ± 0.56 m/s.

**Q.** And the speed of sound ([2]; x1 = 0.3973)?
**A.** The speed of sound was 1242.5 ± 0.56 m/s.

**Q.** What about the speed of sound ([2]; x1 = 0.4963) of the same molecule?
**A.** The speed of sound was 1250.2 ± 0.57 m/s.

**Q.** What about the speed of sound ([2]; x1 = 0.6012) of the same molecule?
**A.** Its speed of sound is 1257.8 ± 0.57 m/s.

**Q.** What about the speed of sound ([2]; x1 = 0.6951) of the same molecule?
**A.** Its speed of sound is 1263.9 ± 0.58 m/s.

**Q.** What about the speed of sound ([2]; x1 = 0.8061) of the same molecule?
**A.** Its speed of sound is 1270.4 ± 0.58 m/s.

**Q.** What about the speed of sound ([2]; x1 = 0.9076) of the same molecule?
**A.** The speed of sound was 1275.6 ± 0.59 m/s.

**Q.** And the speed of sound ([2]; x1 = 0.9482)?
**A.** The speed of sound was 1277.3 ± 0.59 m/s.

**Q.** And the speed of sound ([2]; x1 = 1)?
**A.** Its speed of sound is 1279.3 ± 0.59 m/s.

**Q.** And the mass density ([2]; x1 = 0.0489)?
**A.** Its mass density is 816.57 ± 0.16 kg/m3.

**Q.** What about the mass density ([2]; x1 = 0.1025) of the same molecule?
**A.** Its mass density is 834.15 ± 0.15 kg/m3.

**Q.** And the mass density ([2]; x1 = 0.2027)?
**A.** The mass density was 864.58 ± 0.14 kg/m3.

**Q.** And the mass density ([2]; x1 = 0.3036)?
**A.** The mass density was 892.35 ± 0.14 kg/m3.

**Q.** And the mass density ([2]; x1 = 0.3973)?
**A.** The mass density was 915.89 ± 0.13 kg/m3.

**Q.** What about the mass density ([2]; x1 = 0.4963) of the same molecule?
**A.** The mass density was 938.64 ± 0.13 kg/m3.

**Q.** And the mass density ([2]; x1 = 0.6012)?
**A.** Its mass density is 960.68 ± 0.12 kg/m3.

**Q.** What about the mass density ([2]; x1 = 0.6951) of the same molecule?
**A.** Its mass density is 978.76 ± 0.12 kg/m3.

**Q.** What about the mass density ([2]; x1 = 0.8061) of the same molecule?
**A.** The mass density was 998.37 ± 0.12 kg/m3.

**Q.** What about the mass density ([2]; x1 = 0.9076) of the same molecule?
**A.** Its mass density is 1014.74 ± 0.12 kg/m3.

**Q.** And the mass density ([2]; x1 = 0.9482)?
**A.** Its mass density is 1020.9 ± 0.12 kg/m3.

**Q.** And the mass density ([2]; x1 = 1)?
**A.** Its mass density is 1028.45 ± 0.12 kg/m3.

**Q.** And the excess molar enthalpy ([3]; x1 = 0.025)?
**A.** The excess molar enthalpy was 0.0229 ± 0.00172 kcal/mol.

**Q.** What about the excess molar enthalpy ([3]; x1 = 0.054) of the same molecule?
**A.** Its excess molar enthalpy is 0.0473 ± 0.00143 kcal/mol.

**Q.** And the excess molar enthalpy ([3]; x1 = 0.117)?
**A.** Its excess molar enthalpy is 0.0815 ± 0.00143 kcal/mol.

**Q.** What about the excess molar enthalpy ([3]; x1 = 0.216) of the same molecule?
**A.** Its excess molar enthalpy is 0.109 ± 0.00143 kcal/mol.

**Q.** And the excess molar enthalpy ([3]; x1 = 0.309)?
**A.** Its excess molar enthalpy is 0.12 ± 0.00167 kcal/mol.

**Q.** What about the excess molar enthalpy ([3]; x1 = 0.404) of the same molecule?
**A.** Its excess molar enthalpy is 0.121 ± 0.00167 kcal/mol.

**Q.** And the excess molar enthalpy ([3]; x1 = 0.517)?
**A.** The excess molar enthalpy was 0.115 ± 0.00143 kcal/mol.

**Q.** What about the excess molar enthalpy ([3]; x1 = 0.612) of the same molecule?
**A.** The excess molar enthalpy was 0.101 ± 0.00143 kcal/mol.

**Q.** What about the excess molar enthalpy ([3]; x1 = 0.712) of the same molecule?
**A.** Its excess molar enthalpy is 0.0765 ± 0.0012 kcal/mol.

**Q.** What about the excess molar enthalpy ([3]; x1 = 0.814) of the same molecule?
**A.** The excess molar enthalpy was 0.0459 ± 0.000956 kcal/mol.

**Q.** And the excess molar enthalpy ([3]; x1 = 0.905)?
**A.** Its excess molar enthalpy is 0.021 ± 0.000669 kcal/mol.
